Our source for the IC50 values is the Kinase Knowledgebase extract (Sharma et al. 2016).

In the assay the target is MAPK14;MAPK11;MAPK12 (human) (UniProt Q16539). The assay is described as follows: Inhibition of p38 Kinase Activity.

For orientation: IC50 means the concentration at which inhibition is half-maximal. Read a high IC50 as weaker potency. Compound `Cc1ccc(C(=O)NC#N)cc1Nc1nc(N[C@H]2CCNC2)nc(N(C)CC(C)(C)C)n1` had an IC50 of under 1 µM.
As for `Cc1ccc(C(N)=O)cc1Nc1nc(N[C@H]2CCN(C(C)c3ccccn3)C2)nc(N(C)CC(C)C)n1` (stereo partly drawn), the figure is under 1 µM; as for `CC(CNc1nc(Nc2ccc3ncsc3c2)nc(N2CCN(C(=N)N)CC2)n1)c1ccccc1` (stereo not drawn), under 10 µM; as for `Cc1ccc(C(=O)Nc2ccccc2)cc1Nc1nc(N[C@H]2CCNC2)nc(N(C)CC(C)C)n1`, under 1 µM.
As to `Cc1ccc(C(N)=O)cc1Nc1nc(NC2CCc3ccccc32)nc(N[C@@H]2CCNC2)n1` (stereo partly drawn), the IC50 was under 1 µM.
As for `Cc1ccc(C(N)=O)cc1Nc1nc(N[C@H]2CCN(Cc3ccc(Cl)c(Cl)c3)C2)nc(N(C)CC(C)C)n1`, the figure is under 1 µM; as for `Cc1ccc(C(=O)Nc2ccc(F)cc2)cc1Nc1nc(N[C@H]2CCNC2)nc(N(C)CC(C)(C)C)n1`, under 1 µM; as for `Clc1cccc(Nc2nc(Cl)nc(Nc3ccc4ncsc4c3)n2)c1`, under 10 µM.
As for `Cc1ccc(C(N)=O)cc1Sc1nc(N[C@@H]2CCNC2)nc(N(C)CC(C)(C)C)n1`, the figure is under 30 µM; as for `CC(CNc1nc(Nc2ccc3ncsc3c2)nc(N(C)C)n1)c1ccc(Cl)cc1` (stereo not drawn), under 10 µM.
As to `CC(CNc1nc(Nc2ccc3ncsc3c2)nc(N2CC3CC2CN3C(=O)C2CCOC2)n1)c1ccccc1` (stereo not drawn), the IC50 was under 10 µM.
In the case of `COC(=O)c1ccc(C)c(Nc2nc(N[C@H]3CCNC3)nc(N(C)CC(C)(C)C)n2)c1`, the IC50 was under 1 µM.
`CN(CCN(C)c1nc(NCCc2ccccc2)nc(Nc2ccc3ncsc3c2)n1)C(=O)CCC(=O)O`: the IC50 is under 10 µM.
The figure for `CNC(=O)c1ccc(C)c(Nc2nc(O[C@H]3CCNC3)nc(N(C)CC(C)(C)C)n2)c1` is under 1 µM.
The figure for `Cc1ccc2ncn(-c3nc(F)cc(NCCOC(C)C)n3)c2c1` is under 10 µM; for `CNC(=O)c1ccc(C)c(Nc2nc(N[C@H]3CCNC3)nc(SCC(C)C)n2)c1` it is under 1 µM.
On to `CONC(=O)c1ccc(C)c(Sc2nc(NCc3ccccn3)nc(N(C)CC(C)(C)C)n2)c1`, for which the IC50 is under 30 µM.
As for `Cc1ccc(C(N)=O)cc1Nc1nc(N[C@@H]2CCNC2)nc(N(C)C2CCCC2)n1`, the IC50 was under 1 µM.
Compound `CONC(=O)c1ccc(C)c(Oc2nc(N(C)CC(C)(C)C)nc(N3CCCN(C)CC3)n2)c1` registered an IC50 of under 30 µM.
`CNC(=O)c1ccc(C)c(Nc2nc(NC3CCN(Cc4ccccn4)C3)nc(N(C)CC(C)(C)C)n2)c1` (stereo not drawn) registered an IC50 of under 1 µM.
In turn, `Cc1ccc(C(N)=O)cc1Nc1nc(N[C@H]2CONC2=O)nc(N(C)CC(C)(C)C)n1` displayed an IC50 of under 1 µM.
For `CSc1nc2ccc(Nc3nc(NC[C@H](C)O)nc(N[C@@H](C)C4CCCCC4)n3)cc2s1`, the IC50 was under 10 µM.
On to `Cc1ccc(C(N)=O)cc1Nc1nc(N[C@H]2CCN(Cc3ccc(C(C)(C)C)cc3)C2)nc(N(C)CC(C)C)n1`, for which the IC50 is under 1 µM.
The figure for `CC(C)OCCNc1cc(Cl)nc(-n2cnc3ccccc32)n1` is under 10 µM.
As to `CC(=O)Nc1ccc(C)c(Nc2nc(NCC(C)(C)C)nc(N[C@H]3CCNC3)n2)c1`, the IC50 was under 1 µM.
In the case of `CCONC(=O)c1ccc(C)c(Nc2nc(N(C)CC(C)(C)C)nc(N3CCCNCC3)n2)c1`, the IC50 is under 1 µM.
In the case of `Cc1ccc(C(N)=O)cc1Nc1nc(N[C@H]2CCN(Cc3ccc(O)cc3)C2)nc(N(C)CC(C)C)n1`, the IC50 is under 1 µM.
`Cc1ccc(C(N)=O)cc1Nc1nc(N[C@H]2CCN(Cc3ccc(F)cc3)C2)nc(N(C)CC(C)C)n1`: the IC50 was under 1 µM.
For the compound `Cc1ccc(C(N)=O)cc1Nc1nc(NCCCn2ccnc2)nc(NC2CCCC2)n1`, the IC50 is under 1 µM.
The figure for `Cc1ccc(C(N)=O)cc1Nc1nc(NC2CCCC2)nc(NC2CCN(Cc3ccccc3)C2)n1` (stereo not drawn) is under 1 µM.
On to `Cc1ccc(C(N)=O)cc1Nc1nc(N[C@H]2CCN(Cc3cccc(F)c3)C2)nc(N(C)CC(C)C)n1`, for which the IC50 is under 1 µM.
Take `Cc1ccc(C(N)=O)cc1Nc1nc(N[C@H]2CCN(C(C)c3ccncc3)C2)nc(N(C)CC(C)C)n1` (stereo partly drawn): the IC50 is under 1 µM.
With `Cc1ccc(C(N)=O)cc1Nc1nc(N[C@H]2CCCNC2)nc(N(C)CC(C)(C)C)n1`, the IC50 is under 1 µM.
For the compound `Cn1ccc2cc(Nc3nc(Cl)nc(NC[C@@H]4CC[C@H]5C[C@@H]4C5(C)C)n3)ccc21`, the IC50 is under 10 µM.
`Cc1ccc(C(N)=O)cc1Nc1nc(NC2Cc3ccccc3C2)nc(N[C@@H]2CCNC2)n1`: the IC50 was under 1 µM.
`Cc1ccc(C(N)=O)cc1Nc1nc(N[C@@H]2CCN(C(C)CC(C)C)C2)nc(N(C)CC(C)C)n1` (stereo partly drawn) returned an IC50 of under 1 µM.
The compound `Cc1ccc(C(N)=O)cc1Nc1nc(NC2CCN(Cc3ccccc3)C2)nc(N(C)CC(C)C)n1` (stereo not drawn) yielded an IC50 of under 1 µM.
As for `CONC(=O)c1ccc(C)c(Nc2nc(NCc3ccc(Cl)c(Cl)c3)nc(N(C)CC(C)(C)C)n2)c1`, the figure is under 1 µM; as for `Cc1ccc(C(N)=O)cc1Nc1nc(NC[C@H]2CCCN2)nc(N(C)CC2CCCC2)n1`, under 1 µM.
The figure for `Cc1ccc(C(N)=O)cc1Nc1nc(NCC23CC4CC(CC(C4)C2)C3)nc(NC2CCNC2)n1` (stereo not drawn) is under 1 µM; for `C[C@H](CNc1nc(NCCO)nc(Nc2ccc3ncsc3c2)n1)c1ccccc1` it is under 10 µM; for `CNC1CCN(c2cc(NCCOC(C)C)nc(-n3cnc4ccccc43)n2)C1` (stereo not drawn) it is under 10 µM.
The figure for `Cc1ccc(C(N)=O)cc1Nc1nc(NC2CCNC2)nc(N(C)CC(C)(C)C)n1` (stereo not drawn) is under 1 µM; for `Cc1ccc(-c2nn(C)c(=O)[nH]2)cc1Nc1nc(N(C)CC(C)(C)C)nc(N2CCCN(C)CC2)n1` it is under 1 µM; for `Cc1ccc(C(N)=O)cc1Nc1nc(NC2CCCN(C(C)C)C2)nc(N(C)CC(C)C)n1` (stereo not drawn) it is under 1 µM.
In the case of `Cc1ccc(C(=O)Nc2ccccn2)cc1Nc1nc(N[C@H]2CCNC2)nc(N(C)CC(C)(C)C)n1`, the IC50 is under 1 µM.
Consider `O=C(O)CCC(=O)N1CCN(c2nc(Nc3ccc4ncsc4c3)nc(NC3CCc4ccccc43)n2)CC1` (stereo not drawn), for which the IC50 is under 10 µM.
In turn, `CC(=O)N(C)CCCN(C)c1nc(NCC(C)c2ccccc2)nc(Nc2ccc3ncsc3c2)n1` (stereo not drawn) gave a half-inhibitory concentration (IC50) of under 10 µM.
Turning to `Cc1ccc(C(N)=O)cc1Nc1nc(NCC2CCNCC2)nc(NC2CCCC2)n1`, the IC50 is under 1 µM.
Take `CCCN(C)c1nc(Nc2cc(C(N)=O)ccc2C)nc(N[C@H]2CCNC2)n1`: the IC50 is under 1 µM.
For the compound `Cc1ccc(C(N)=O)cc1Nc1nc(NC2CCNC2)nc(NC2CCN(Cc3ccccc3)C2)n1` (stereo not drawn), the IC50 is under 1 µM.
The compound `CCC[C@@H]1C[C@@H](Nc2nc(Nc3cc(C(N)=O)ccc3C)nc(N(C)CC(C)(C)C)n2)CN1` gave an IC50 of under 1 µM.
Compound `CCC(C)N1CC[C@@H](Nc2nc(Nc3cc(C(N)=O)ccc3C)nc(N(C)CC(C)(C)C)n2)C1` (stereo partly drawn) registered an IC50 of under 1 µM.
With `Cc1ccc(C(N)=O)cc1Nc1nc(NC(C)C2CCCCC2)nc(N[C@H]2CCNC2)n1` (stereo partly drawn), the IC50 is under 1 µM.
For the compound `Cc1ccc(C(N)=O)cc1Nc1nc(N[C@@H]2CCN(C(C)CO)C2)nc(N(C)CC(C)(C)C)n1` (stereo partly drawn), the IC50 was under 1 µM.
As for `CONC(=O)c1ccc(C)c(Nc2nc(N(C)CC(C)(C)C)nc(N3CCNCC3)n2)c1`, the figure is under 1 µM; as for `Cc1ccc(C(N)=O)cc1Nc1nc(NC2CCCNC2)nc(N(C)CC(C)(C)C)n1` (stereo not drawn), under 1 µM.
The compound `COCCNC(=O)c1ccc(C)c(Nc2nc(N[C@H]3CCNC3)nc(N(C)CC(C)C)n2)c1` yielded an IC50 of under 1 µM.
The figure for `Cc1ccc(C(N)=O)cc1Nc1nc(NC(C)C2CCCCC2)nc(N2CCNCC2)n1` (stereo not drawn) is under 1 µM; for `CNCCCN(C)c1nc(NC[C@@H]2CC[C@H]3C[C@@H]2C3(C)C)nc(Nc2ccc3ncsc3c2)n1` it is under 10 µM; for `CCC(CNc1nc(Cl)nc(Nc2ccc3ncsc3c2)n1)c1ccccc1` (stereo not drawn) it is under 10 µM.
`CC(C)CN(C)c1nc(NC2CCN(CC3CCNCC3)C2)nc(NC2CC(C(N)=O)CCC2C)n1` (stereo not drawn) had an IC50 of under 1 µM.
The compound `CC(=O)NCCNc1nc(Nc2cc(C(N)=O)ccc2C)nc(N(C)CC(C)(C)C)n1` showed an IC50 of under 1 µM.
The compound `Cc1ccc(C(N)=O)cc1Nc1nc(N[C@H]2CCN(Cc3cccc4c3OCO4)C2)nc(N(C)CC(C)C)n1` registered an IC50 of under 1 µM.
The figure for `Cc1ccc(C(N)=O)cc1Nc1nc(N[C@H]2CCN(Cc3ccccc3O)C2)nc(N(C)CC(C)C)n1` is under 1 µM.
In turn, `Cc1ccc(C(N)=O)cc1Nc1nc(NCC23CC4CC(CC(C4)C2)C3)nc(N[C@H]2CCNC2)n1` yielded an IC50 of under 1 µM.
In the case of `CCNC(=O)N1CCN(c2nc(NCC(C)c3ccccc3)nc(Nc3ccc4ncsc4c3)n2)CC1` (stereo not drawn), the IC50 is under 10 µM.
As for `CNC(=O)c1ccc(C)c(Nc2nc(N[C@H]3CCN(Cc4ccccc4OC)C3)nc(N(C)CC(C)C)n2)c1`, the figure is under 1 µM.
